Residues, ends and D or L forms follow the SMILES beside them. *: point of attachment. 5FAM = O=C1OC2(c3ccc(O)cc3Oc3cc(O)ccc32)c2ccc(C(=O)*)cc21
Assays:
[1] = Generalized toxicity: activity, behavior and weight gain; format: in vivo, mice; conditions: single intravenous injection of 15-5,000 nmoles, up to 8 weeks of monitoring
Experimental: To evaluate generalized toxicity following peptide administration, the generalized activity, behavior and weight gain of mice after a single intravenous injection of 15-5,000 nmoles of SEQ ID NO:25 was studied.
Female 8 week-old SKH1 mice (average weight 25 g) were treated with varying amounts of SEQ ID NO:25 ranging from 15-5,000 nmoles. Generalized activity, behavior and weight gain were evaluated following single intravenous injection of 15-5,000 nmoles of […] on a daily basis for 3 clays following injection. Thereafter, the mice were monitored three times per week for 8 weeks.

[2] = test system: sciatic nerves; assay: In vivo nerve labeling with fluorescently labeled peptides (nerve versus adjacent non-nerve tissue); set-up: species or system mice; conditions: for nerve to muscle contrast: FAM-labeled peptides intravenously
Experimental: To test the nerve binding affinity of each of the isolated peptide sequences in vivo, carboxyfluorescein (FAM)-labeled peptides were injected intravenously into living mice. Following a wash-out period, the contrast between nerve and muscle binding of the labeled peptides was evaluated.
Wild-type albino C57BL6 (Jackson Laboratory) or SKH1 (Charles River Laboratories) mice were treated intravenously with 150 nmoles of fluorescently labeled SEQ ID NO:4 via tail vein injection. Following a 2-3 hour wash-out period for SEQ ID NO:25 or 5-6 hours for SEQ ID NO:31, mice were anesthetized with ketamine and midazolam (80 mg/kg intraperitoneally), a skin incision was made over the dorsal surface of the hind, legs and the sciatic nerves exposed bilaterally. […] Nerves and adjacent non-nerve tissue was delineated with Image J and relative fluorescence was measured. Following background subtraction using dark current measurements and measurements of a standard, the ratios of peptide binding to nerve versus adjacent non-nerve tissue were calculated.

[3] = test system: sciatic nerve; assay: Effect of nerve injury (crush, devascularization) on labeling; format: in vivo, mice
Experimental: The ability of peptides to label peripheral nerves following nerve crush injury was evaluated in mice using SEQ ID NO:25. […] (Occasionally, nerve labeling immediately at the site of injury was slightly diminished compared to nerve labeling several centimeters away from the site of injury (FIG. 6D), but this observation was highly variable (FIGS. 6B,F) and not statistically significant (FIG. 6I)).
Wild type mice were anesthetized and the left sciatic nerve exposed and crushed with microforceps for 3-5 seconds. Muscular contractions during the crush after immediately afterwards were monitored to ensure uniformity of the injury. The skin incision was then closed and mice returned to their cages to recover. At varying times after crush injury, intravenous SEQ ID NO:25 (150 nmoles) was administered. Two to three hours after intravenous SEQ ID NO:25 treatment, the mice were anesthetized, bilateral sciatic nerves exposed and quantitative fluorescence microscopy was used to measure nerve fluorescence. Nerve and adjacent muscle fluorescence were measured using Image J software by measuring standardized boxed regions. Crushed and contralateral control nerve fluorescence were compared for each animal.

[4] = Peptide biodistribution and metabolism (organ fluorescence, LC-MS and MALDI of urine); format: in vivo, mice
Experimental: (§1) To evaluate the biodistribution of the peptide following systemic administration, organs were harvested from mice treated with SEQ ID NO:4 and fluorescence uptake was evaluated. […] To evaluate the metabolism of the peptide as it passed through the renal system, liquid chromatography-mass spectrometry (LC-MS, Agilent) tracing was used to compare urine obtained from mice injected with SEQ ID NO:25 or SEQ ID NO:31 intravenously versus urine from normal mice spiked with the native SEQ ID NO:25 or SEQ ID NO:31. […] Next, matrix-assisted. laser desorption/ionization (MALDI) was used to evaluate the nature of the modification to the peptide as it was metabolized.
as §1, with “NO:25 and” for “NO:25 or”, “ID NO:3” for “ID NO:31”, “ID NO:25.” for “ID NO:25 or SEQ ID NO:31.”, “Next, matrix-assisted” for “Next, matrix-assisted.”

[5] = test system: sciatic nerves and surrounding non-nerve tissue; format: in vivo, mice
Text: To evaluate the time course of peptide binding to nerve tissue, sciatic nerves and surrounding non-nerve tissue in living mice were imaged before and after intravenous administration of SEQ ID NO:25, Prior to administration of SEQ ID NO: 25 (FIG. 3A), there was little contrast of the nerve (arrowheads) in relation to surrounding non-nerve tissue. Within seconds following intravenous administration of SEQ ID NO:25 (FIG. 3B), the fluorescent injectate could be seen leaking from capillaries (arrows), including capillaries associated with the sciatic nerves (insert). […] Useful contrast between nerve and surrounding muscle begins to develop by 2-3 hours after intravenous injection (FIG. 3E) and lasts several hours (FIG. 3F). […] Serum half-life was calculated at ˜10 minutes.
Female 8 week-old SKH1 mice were anesthetized with ketamine and midazolam and a skin incision was made over the dorsal surface of the hind legs and the sciatic nerves exposed. A preinjection image was taken a dissecting microscope (Lumar Zeiss) and a monochrome camera (Coolsnap). The mice were treated intravenously with […] of SEQ ID NO:25 via, tail vein injection. Sequential fluorescence imaging was then performed as described above: excitation 470/40 nm, emission 525/50 nm, exposure 15 milliseconds-5 seconds. Nerves and adjacent non-nerve tissue were delineated with Image J and relative fluorescence was measured. Quantification of fluorescence was then performed following subtraction of dark current and normalizing to a standard.

[6] = test system: sciatic nerves; assay: In vivo nerve labeling with fluorescently labeled peptides (nerve versus adjacent non-nerve tissue); set-up: species or system mice
[7] = test system: human recurrent laryngeal nerve; assay: Human nerve labeling: resected recurrent laryngeal nerves and adjacent muscle incubated with peptide; format: binding
Experimental: To evaluate whether or not SEQ ID NO:25 could selectively bind human nerves as compared to non-nerve tissue, freshly resected recurrent laryngeal nerves and adjacent muscle obtained from patients undergoing total laryngectomy for laryngeal cancer were incubated with SEQ ID NO:25. […] This binding pattern is similar to the binding pattern observed in mice.
To evaluate whether or not SEQ ID NO:25 could selectively bind human nerves as compared to non-nerve tissue, freshly resected recurrent laryngeal nerves and adjacent muscle obtained from patients undergoing total laryngectomy for laryngeal cancer were incubated with SEQ ID NO:25 at […] for 15 minutes and washed in saline for 15 minutes each. The nerve and muscle segments were then placed on a black non-fluorescent plate and imaged (Maestro, CRI). The nerve segments were then embedded in Tissue-Tek®, frozen and cryosectioned. 7-10 μm cryosections were then. imaged with standard fluorescence microscopy. Adjacent sections were stained with hematoxylin and eosin (H&E) and imaged.

[8] = test system: MBP
Experimental: To test the nerve binding affinity of each of the isolated peptide sequences in vitro, dissected nerve tissue was removed from mice and incubated for one hour with 100 nM of each peptide, including a control peptide made up of amino acids that were contained within the various phages selected and sequenced, but in a mixed-up order and designed without repeating any single amino acid except for glycine (which was added to the C-terminus as a flexible linker).

[9] = test system: dissected nerve tissue; assay: In vitro nerve binding: dissected nerve tissue incubated with peptide; set-up: species or system mice; conditions: 100 nM peptide, one hour incubation
[10] = test system: sciatic nerve conduction; conditions: mouse, in vivo
Experimental: Maximal compound muscle action potential amplitude (CMAP) and nerve conduction latency were measured as described in Osuchowski et al, Noninvasive model of sciatic nerve conduction in healthy and septic mice: reliability and normative data, Muscle Nerve, 2009), Briefly, control female 8 week-old SKH1 mice and mice treated with SEQ ID NO:25 were anesthetized with ketamine-midazolam and placed in a prone position. CMAP potentials were evoked (Grass stimulator) with stimulating electrode (Medtronics) placed 2 mm lateral to the midline. The recording electrode was an ear-clip electrode (Life-tech.com) placed on the digits of the hind foot and the reference electrode was placed on the heel of the foot. Maximal CMAPs were generated by gradually increasing the stimulation (5-10V, 1 pulse per second, paired, 0.5-2 sec duration) until a maximal, artifact free tracing was obtained. The CMAP traces were captured on a digital oscilloscope (Tektronic). Nerve conduction latency was measured from the beginning of the stimulation to the start of the upslope. CMAP amplitude was measured from the start of the upslope to the peak.

[11] = test system: sciatic nerve; assay: Histology: localization of binding in nerves of thy1-YFP transgenic mice; format: in vivo; conditions: mouse, in vivo
Text: To evaluate the localization of SEQ ID NO:4 binding in nerves, we treated thy1-YFP transgenic mice whose axons are genetically encoded with YFP under a neuron specific promoter (Feng et al, Imaging neuronal subsets in transgenic mice expressing multiple spectral variants of GFP. Neuron, 2000) with SEQ ID NO:31. […] These deeper nerve structures were not easily seen either with brightfield (FIG. 5A, insert) or YFP (FIG. 5B, insert) imaging. To evaluate the localization of SEQ ID NO:4 binding on a cellular level, we imaged cryosections (3-5 μm) of nerves and attached muscles from thy1-YFP animals treated with SEQ ID NO:31.

[12] = test system: sciatic nerves; assay: Dose response of peptide binding (nerve to muscle contrast ratio); format: in vivo, mice; conditions: 5,000 nmoles, at 2 hours
Experimental: To determine the dose response of peptide binding, the nerve to muscle contrast ratio was measured as a function of the amount of peptide administered (FIG. 4D).
Female 8 week-old SKH1 mice (average weight 25 g) were treated with varying amounts of SEQ ID NO:25 ranging from […]. After a 2 hour washout period, mice were sacrificed and sciatic nerves exposed. Nerves and adjacent non-nerve tissue were delineated with Image 3 and relative fluorescence was measured. Quantification of fluorescence was then performed following subtraction of dark current and normalizing to a standard. For the mice injected with 5,000 nmoles of SEQ ID NO:4, it was noted that background fluorescence was still very high at 2 hours, making the contrast ratio low even though the absolute nerve fluorescence was high. For these mice, the skin incisions were repaired and the mice were allowed to awaken from anesthesia, then at 6 hours following initial SEQ ID NO:4 administration, the mice were sacrificed and the sciatic nerves exposed and analyzed as above.

CC(=O)N[C@@H](CO)C(=O)N[C@@H](Cc1c[nH]cn1)C(=O)N[C@@H](CO)C(=O)N[C@@H](CC(N)=O)C(=O)N[C@H](C(=O)N[C@@H](CCC(N)=O)C(=O)N[C@H](C(=O)N[C@@H](CC(C)C)C(=O)N[C@@H](C)C(=O)N[C@@H](CCCCN)C(=O)N[C@@H](C)C(=O)N1CCC[C@H]1C(=O)N[C@@H](CCC(=O)O)C(=O)N[C@@H](Cc1c[nH]cn1)C(=O)N[C@H](C(=O)NCC(=O)N[C@@H](CCCCNC(=O)c1ccc2c(c1)C(=O)OC21c2ccc(O)cc2Oc2cc(O)ccc21)C(N)=O)[C@@H](C)O)[C@@H](C)O)[C@@H](C)O [SEQ ID NO:25, acetyl-SHSNTQTLAKAPEHTGK(5,6FAM)-amide] (Ac-SHSNTQTLAKAPEHTGK(5FAM)-NH2)
generalized activity, behavior and weight gain versus uninjected/control mice [1]: did not have any apparent changes
Nerve contrast ([2]; derivatives of peptide SEQ ID NO: 4): High
nerve labeling compared to contralateral control nerve ([3]; 1 day after crush injury): intact
decrease of nerve labeling compared to contralateral control nerve ([3]; 3 days after crush injury): 40%
nerve labeling compared to contralateral control nerve ([3]; 7 days after crush injury): returned to control levels
nerve fluorescence compared to contralateral control side ([3]; immediately following nerve devascularization): highly diminished
native peptide detectable in urine of intravenously injected mice ([4]; LC-MS): none
only fluorescently labeled entity identified in urine ([4]; MALDI): lysine-FAM
time at which useful contrast between nerve and surrounding muscle begins to develop ([5]; after intravenous injection): 2 to 3 h
nerve to muscle contrast ratio ([5]; by 4-5 hours post-injection): 8-10 fold
visible contrast between nerve and muscle ([5]; by 24 hrs post-injection): all visible contrast between nerve and muscle had disappeared
time of highest muscle fluorescence ([5]; mouse, in vivo, iv): highest immediately following intravenous administration
time of peak nerve fluorescence post-administration ([5]; mouse, in vivo, iv): around 10 minutes
systemic survey of nerves labeled ([6]; facial nerve, brachial plexus, sciatic nerve): all nerves were brightly labeled
binding to human nerves as compared to adjacent muscle ([7]; 50 μM for 15 minutes): Selective binding
pattern of nerve binding in human tissue ([7]; tissue sections): connective tissue surrounding the nerve, i.e. epineurium, perineurium, and endoneurium

TYTDWLNFWAWP (peptide that specifically binds to a neuron, nerve, or component of either) [SEQ ID NO:2]
nerve to muscle contrast ([2]; living mice, after wash-out): little significant nerve-to muscle contrast
increase in binding to MBP crosslinked beads compared to control beads (with no MBP) [8]: 10 fold
uptake/binding to dissected nerve tissue compared to no peptide or control peptide [9]: little increase

NTQTLAKAPEHT (peptide that specifically binds to a neuron, nerve, or component of either) [SEQ ID NO:4]
generalized activity, behavior and weight gain versus uninjected/control mice [1]: similar
shape of the CMAP curve versus control animals [10]: similar
nerve fluorescence relative to adjacent non-neural tissue ([2]; FAM-labeled peptide intravenously, living mice, exposed sciatic nerves, after wash-out): 4 fold
nerve to muscle contrast ([2]; living mice, after wash-out): best nerve to non-nerve contrast
colocalization of labeling with myelin or axons [11]: does not appear to colocalize
colocalization of labeling with myelin or axons ([11]; listed as SEQ ID NO: 4): does not colocalize
nerve labeling after injury ([3]; 3 days following injury): diminished
nerve labeling compared to contralateral control nerve ([3]; 7 days after crush injury): recovers
nerve fluorescence as a function of distance from crush site ([3]; mouse, in vivo): does not significantly diminish
biodistribution following systemic administration (organ fluorescence uptake) ([4]; mouse, in vivo): accumulated in the kidney and was excreted into the urine
labeling of nerves in the central nervous system (CNS) ([6]; mouse, in vivo): no evidence of labeling
uptake/binding to dissected nerve tissue compared to no peptide or control peptide [9]: two-fold increase over control to no difference from control
nerve to muscle contrast ratio [12]: low

Reference: US8685372B2, “Peptides and aptamers for targeting of neuron or nerves” (The Regents of the University of California, priority 2009, dated 2014)
